Experimental data as given in patent publication US8124834B2, “Use of active cytokinin synthase gene” (Riken, priority 2006, dated 2012).

T1: LOG protein (Oryza sativa subsp. japonica, UniProt Q5ZC82)
T1 sequence (Q5ZC82 1-242): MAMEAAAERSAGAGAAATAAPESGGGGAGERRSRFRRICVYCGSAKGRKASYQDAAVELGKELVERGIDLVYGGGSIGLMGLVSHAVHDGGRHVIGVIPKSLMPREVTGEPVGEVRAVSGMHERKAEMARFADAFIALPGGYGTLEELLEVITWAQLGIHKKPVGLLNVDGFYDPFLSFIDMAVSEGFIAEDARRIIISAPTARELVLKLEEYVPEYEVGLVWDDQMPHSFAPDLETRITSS


Target: T1, LOG protein
Experiment: Detection of enzyme activity of recombinant LOG protein with cytokinin substrates (HPLC)
Type: biochemical
Design: the protein coding region of the LOG gene cDNA was inserted into pCOLD-I (TaKaRa), a His-tag protein expression vector; made in house; host or cells: E. coli BL21(DE3)[pG-Tf2]
Details: 3 μg LOG protein, 50 μM substrate, pH7, 30° C., 2 hours, HPLC absorption at 270 nm
Experimental: The following 8 types of cytokinin substrates were used: N^6-(delta-2-isopentenyl)adenine (iP), trans-zeatin (tZ), cis-zeatin (cZ), iP riboside (iPR), tZ riboside (tZR), cZ riboside (cZR), iPR 5′-monophosphate (iPRMP), and tZR 5′-monophosphate (tZRMP). As reaction conditions, 100 μl of a reaction solution containing 50 mM Tris-HCl, 1 mM MgCl2, and a 50 μM substrate, pH7 was incubated at 30° C. for 2 hours. Thereafter, 10 μl of 20% acetic acid was added to the reaction solution to terminate the reaction, and the reaction solution was then centrifuged at 15,000 rpm at a room temperature for 20 minutes. […] For elution, solvent C (100% acetonitrile) and solvent D (2% acetic acid) were used.

reactivity of the substrate with recombinant LOG protein (conversion to base form)	Molecule
no reactivity	C/C(=C/CNc1ncnc2nc[nH]c12)CO [cZ, cis-zeatin]
no reactivity	C/C(=C/CNc1ncnc2c1ncn2[C@@H]1O[C@H](CO)[C@@H](O)[C@H]1O)CO [cZR, cZ riboside]
no reactivity	CC(C)=CCNc1ncnc2nc[nH]c12 [iP, N^6-(delta-2-isopentenyl)adenine]
no reactivity	CC(C)=CCNc1ncnc2c1ncn2[C@@H]1O[C@H](CO)[C@@H](O)[C@H]1O [iPR, iP riboside]
no reactivity	C/C(=C\CNc1ncnc2nc[nH]c12)CO [tZ, trans-zeatin]
no reactivity	C/C(=C\CNc1ncnc2c1ncn2[C@@H]1O[C@H](CO)[C@@H](O)[C@H]1O)CO [tZR, tZ riboside]

Molecule	reactivity of the substrate with recombinant LOG protein (conversion to base form)
C/C(=C\CNc1ncnc2c1ncn2[C@@H]1O[C@H](COP(=O)(O)O)[C@@H](O)[C@H]1O)CO (relative stereo) [tZRMP, trans-zeatin riboside 5′-monophosphate]	completely converted

Tested on: not listed separately
Experiment: Enzyme properties of AtLOG 1, 2, 3, 4, 5, 7 and 8 proteins having iPRMP as substrate
Type: biochemical, Arabidopsis thaliana
Details: not given
Experimental: (§1) In order to obtain the Km value of the LOG protein to typical substrates iPRMP and tZRMP, the following experiment was carried out. 0.02 μg of LOG protein was used for a single reaction, and it was reacted with a substrate in a substrate concentration of each of 5, 8, 15, 30 and 100 μM in 200 μl of a reaction solution containing 50 mM Tris-HCl, 1 mM MgCl2, 1 mM DTT, pH 6.5. Thereafter, 0 minute, 2 minutes and 4 minutes after initiation of the reaction, 600 μl of cold acetone was added to the reaction solution to terminate the reaction. The reaction solution was left at rest at −80° C. for 30 minutes, and it was then centrifuged at 15,000 rpm for 20 minutes. Thereafter, a supernatant was dried using a centrifugal thickener. The resultant was dissolved in 100 μl of 2% acetic acid, and a reaction product was then detected and quantified under the same conditions as those for the liquid chromatography of Example 2. Only the injection amount was changed to 50 μl. The aforementioned experiment was carried out three times, and the Km value was calculated.
The enzyme activity of each of the purified AtLOG proteins was evaluated under the same reaction conditions as those of Example 2. […] In addition, the enzyme property of each AtLOG protein to iPRMP was determined in the same manner as in Example 5 (Table 4). In Table 4, the Km, Vmax and Kcat values were calculated based on a reaction under the optimal pH condition of each AtLOG protein.

Molecule	Optimal pH [pH]
AtLOG4: Arabidopsis thaliana LOG homolog protein, gene At3g53450, amino acid sequence SEQ ID NO: 10, purified from E. coli (protein, listed as Arabidopsis sp.) MEVNNETMQKSKFGRICVFCGSSQGKKSSYQDAAVDLGNELVLRNIDLVYGGGSIGLMGLVSQAVHDGGRHVIGVIPKTLMPRELTGETVGEVRAVADMHQRKAEMARHSDAFIALPGGYGTLEELLEVITWAQLGIHDKPVGLLNVDGYYNSLLSFIDKAVEEGFISTNARQIIISAPTAKELVKKLEEYSPCHESVATKLCWEIERIDYSSED	6.5
AtLOG7: Arabidopsis thaliana LOG homolog protein, gene At5g06300, amino acid sequence SEQ ID NO: 14, purified from E. coli (protein, listed as Arabidopsis sp.) MEETKSRFKRICVFCGSSSGKKPSYQEAAIQLGNELVERRIDLVYGGGSVGLMGLVSQAVHHGGRHVLGVIPKTLMPREITGETIGEVKAVADMHQRKAEMARQADAFIALPGGYGTLEELLEVITWAQLGIHRKPVGLLNVDGYYNSLLTFIDKAVDEGFISPMARRIIVSAPNAKELVRQLEEYEPEFDEITSKLVWDEVDRISYVPGSEVATAT	6.5
AtLOG2: Arabidopsis thaliana LOG homolog protein, gene At2g35990, amino acid sequence SEQ ID NO: 6, purified from E. coli (protein, listed as Arabidopsis sp.) MEETKSRFRRICVFCGSSSGNKTTYHDAALQLAHQLVERNIDLVYGGGSVGLMGLISQAVHDGGRHVLGIIPKSLAPREITGESIGEVITVSTMHQRKAEMGRQADAFIALPGGYGTFEELLEVITWSQLGIHTKPVGLLNVDGFYDSLLTFIDKAVDEGFVSSTARRIIVSAPNAPQLLQLLEEYVPKHDDFVSKMVWDNTTDAFTLEGDSF	6.5
AtLOG3: Arabidopsis thaliana LOG homolog protein, gene At2g37210, amino acid sequence SEQ ID NO: 8, purified from E. coli (protein, listed as Arabidopsis sp.) MEIKGESMQKSKFRRICVFCGSSQGKKSSYQDAAVDLGNELVSRNIDLVYGGGSIGLMGLVSQAVHDGGRHVIGIIPKTLMPRELTGETVGEVRAVADMHQRKAEMAKHSDAFIALPGGYGTLEELLEVITWAQLGIHDKPVGLLNVDGYYNSLLSFIDKAVEEGFISPTAREIIVSAPTAKELVKKLEEYAPCHERVATKLCWEMERIGYSSEE	6.5
AtLOG8: Arabidopsis thaliana LOG homolog protein, gene At5g11950, amino acid sequence SEQ ID NO: 16, purified from E. coli (protein, listed as Arabidopsis sp.) MEDNQRSRFRKICVFCGSHSGHREVFSDAAIELGNELVKRKIDLVYGGGSVGLMGLISRRVYEGGLHVLGIIPKALMPIEISGETVGDVRVVADMHERKAAMAQEAEAFIALPGGYGTMEELLEMITWSQLGIHKKTVGLLNVDGYYNNLLALFDTGVEEGFIKPGARNIVVSAPTAKELMEKMEEYTPSHMHVASHESWKVEELGDYPGQENKPQ	7.0
AtLOG1: Arabidopsis thaliana LOG homolog protein, gene At2g28305, amino acid sequence SEQ ID NO: 4, purified from E. coli (protein, listed as Arabidopsis sp.) MEIESKFKRICVFCGSSAGNKVSYKDAAIELGTELVSRNIDLVYGGGSIGLMGLISQAVFNGGRHVIGVIPKTLMPREITGETVGEVKAVADMHQRKAEMAKHSDAFIALPGGYGTLEELLEVITWAQLGIHDKPVGLLNVEGYYNSLLSFIDKAVEEGFISPTARHIIVSAPSAKELVKKLEDYVPRHEKVASKKSWEMEQIGLSPTCEISR	6.5
AtLOG5: Arabidopsis thaliana LOG homolog protein, gene At4g35190, amino acid sequence SEQ ID NO: 12, purified from E. coli (protein, listed as Arabidopsis sp.) MEIVKSRFKRVCVFCGSSSGKRECYSDAATDLAQELVTRRLNLVYGGGSIGLMGLVSQAVHEAGGHVLGIIPRTLMDKEITGETYGEVIAVADMHERKAEMARHSDCFIALPGGYGTLEELLEVIAWAQLGIHDKPVGLLNVDGYYNYLLTFIDKAVDDGFIKPSQRHIFVSAPNAKELVQKLEAYKPVNDGVIAKSRWEVEKKVQQPQQQQQVVFCSNTSMQTEIAL	5.4

Target: T1, LOG protein
Experiment: Measurement of Km value of LOG protein to iPRMP and tZRMP
Type: biochemical
Design: the protein coding region of the LOG gene cDNA was inserted into pCOLD-I (TaKaRa), a His-tag protein expression vector; made in house; host or cells: E. coli BL21(DE3)[pG-Tf2]
Details: substrate 5, 8, 15, 30 and 100 μM, 0.02 μg LOG protein, pH 6.5, experiment carried out three times
Experimental: as §1

Molecule	Km [µM]
C/C(=C\CNc1ncnc2c1ncn2[C@@H]1O[C@H](COP(=O)(O)O)[C@@H](O)[C@H]1O)CO (relative stereo) [tZRMP, trans-zeatin riboside 5′-monophosphate]	22 ± 3.6

Same assay, conditions: substrate 5-100 μM, 0.02 μg LOG protein, pH 6.5

Molecule	specific activity of the LOG protein [μmol/min^−1/mg^−1 protein]
C/C(=C\CNc1ncnc2c1ncn2[C@@H]1O[C@H](COP(=O)(O)O)[C@@H](O)[C@H]1O)CO (relative stereo) [tZRMP, trans-zeatin riboside 5′-monophosphate]	4.2

Target: T1, LOG protein
Experiment: Substrate specificity of LOG protein to nucleotide cytokinin forms and AMP
Type: biochemical
Design: the protein coding region of the LOG gene cDNA was inserted into pCOLD-I (TaKaRa), a His-tag protein expression vector; made in house; host or cells: E. coli BL21(DE3)[pG-Tf2]
Details: 0.02 μg LOG protein, 100 μM substrate, pH 6.5, 4 minutes (iPRDP, iPRTP: 0.01 μg, 2 minutes)
Experimental: The reaction specificity of the LOG protein to a nucleotide cytokinin form was analyzed. […] The following 7 types of substrates were used: iPRMP, tZRMP, dihydrozeatin riboside 5′-monophosphate (DZRMP), cZR 5′-monophosphate (cZRMP), iPR 5′-diphosphate (iPRDP), iPR 5′-triphosphate (iPRTP), and AMP. The reaction conditions are as follows. 0.02 μg of the LOG protein was used for a single reaction, and it was reacted with a 100 μM substrate in 200 μl of a reaction solution containing 50 mM Tris-HCl, 1 mM MgCl2, 1 mM DTT, pH 6.5. Thereafter, 0 minute and 4 minutes after initiation of the reaction, 600 μl of cold acetone was added to the reaction solution to terminate the reaction. The reaction solution was left at rest at −80° C. for 30 minutes, and it was then centrifuged at 15,000 rpm for 20 minutes. Thereafter, a supernatant was dried using a centrifugal thickener. […] Only the injection amount was changed to 50 μl. In the case of iPRDP and iPRTP, the amount of a reaction solution was determined to be 100 μl, the mass of a protein used was determined to be 0.01 μg, and the reaction time was determined to be 2 minutes.

reactivity of LOG protein to the substrate (substrate specificity)	Molecule
uses as a substrate	CC(CO)CCNc1ncnc2c1ncn2C1OC(COP(=O)(O)O)C(O)C1O (stereo not shown) [DZRMP, dihydrozeatin riboside 5′-monophosphate]
uses as a substrate	cis-zeatin riboside 5′-monophosphate [cZRMP]

Molecule	reactivity of LOG protein to the substrate (substrate specificity)
C/C(=C\CNc1ncnc2c1ncn2[C@@H]1O[C@H](COP(=O)(O)O)[C@@H](O)[C@H]1O)CO (relative stereo) [tZRMP, trans-zeatin riboside 5′-monophosphate]	uses as a substrate
